# Experimental data as given in US10357556B2, “Methods and compositions for T cell generation and uses thereof” (priority 2016, dated 2019).
# Key:
# [1] = test system: CD4+Foxp3+ regulatory T cells (Tregs); assay: In vitro DC-T cell co-culture: pulsed BMDCs co-cultured with CD4+ T cells; type: cell-based, mouse
# Experimental: Co-culture of bone marrow-derived dendritic cells (BMDCs) and CD4^+ T cells were performed as previously described (30, 32, 36). Briefly, BMDCs were generated from bone marrow progenitor cells isolated from femurs of WT or Atg16L1^ΔCD11c mice in the presence of 20 ng/ml GM-CSF (Miltenyi) in complete RPMI media 1640 (10% fetal bovine serum, 50 U/ml penicillin, 50 μg/ml streptomycin, 2 mM L-glutamine, 1 mM sodium pyruvate, 1 mM HEPES, and non-essential amino acids, and β-mercaptoethanol). BMDCs were pulsed with PBS, WT-OMVs (10 μg/ml), ΔPSA-OMVs (10 μg/ml) or pure PSA (50 μg/ml) for 18-22 hrs; OMVs with a protein content of 10 μg contain 50 μg of PSA. […]
# (§1) Cells were incubated in 5% mouse serum for 15 min and stained for 20 min at 4° C. with either LIVE/DEAD fixable green or far red dead stain kit (Life Technologies), with empirically titrated concentrations of the following antibodies: PerCP-Cy5.5-conjugated anti-mouse CD4 (clone: RM4-5), PerCP-Cy5.5-conjugated anti-human CD4 (clone: OKT4), and/or PE-Cy7-conjugated anti-mouse CD4 (clone: RM4-5). […] Cell acquisition was performed on a BD FACS Calibur (BD Biosciences) or Miltenyi MACSQuant (Miltenyi), and data was analyzed using FlowJo software suite (TreeStar). For ELISAs, cell supernatant from in vitro DC-T cell co-culture were collected and mouse IL-10 and IL-17A were measured using commercially available kits (eBiosciences).
# CD4+Foxp3+ Tregs = assay: Human MoDC - syngeneic CD4+ T cell co-culture; type: cell-based; settings: cells from most subjects, regardless of genotype
# Experimental: To generate monocyte-derived dendritic cell (MoDCs), human PBMCs were isolated from fresh whole blood the same day of harvest using Ficoll-Hypaque (GE Healthcare) gradient (density=1.070 g/ml), followed by monocyte enrichment using the Human Monocyte Isolation Kit II (Miltenyi). For differentiation into MoDCs, monocytes were incubated with recombinant human IL-4 and GM-CSF (Peprotech) every two days in complete RPMI 1640 (5% human AB serum, 50 U/ml penicillin, 50 μg/ml streptomycin, 2 mM L-glutamine, 1 mM sodium pyruvate, 1 mM HEPES, non-essential amino acids, […]). […]
# as §1
# [2] = test system: CD4+CD25- responder effector T cells (Teff); assay: In vitro T cell suppression assay; type: cell-based, mouse; settings: Tregs from co-cultures with Atg16L1ΔCD11c BMDCs
# Experimental: CD4^+CD25^+ Treg cells were purified from in vitro BMDC-T cell co-cultures using magnetic microbeads (Miltenyi). CD4^+CD25^− responder effector T cells (Teff) were isolated from mouse spleens, labeled with 2.5 μM CFSE for 10 min at 37° C. in the dark, washed, and incubated with Treg cells at various Treg:Teff ratios in the presence of 1 μg/ml anti-mouse CD3 (eBiosciences). Irradiated CD4-depleted mouse splenocytes served as antigen-presenting cells. Cultures were incubated for 48 and 72 hrs, cells were stained with specific antibodies and a viability dye, and analyzed by flow cytometry. Dilution of CFSE signal is a measure of proliferation, and inhibition of proliferation a measure of Treg activity.
# [3] = test system: LC3-associated phagocytosis (LAP); assay: LC3-GFP accumulation in BMDCs (LAP activation); type: cell-based, mouse; settings: Rubicon+/- BMDCs
# Experimental: Quantification of LC3-GFP accumulation upon 2 h treatment of BMDCs with PBS, B. fragilis WT-OMV, ΔPSA-OMV or purified PSA in Rubicon^+/− or Rubicon^−/− DCs. Error bars represent S.E.M. **** p<0.0001. Data are representative of 3 independent experiments.
substance,measurement,setting,value
Polysaccharide A [PSA],IL-10 production,[1]; ATG16L1-deficient (Atg16L1ΔCD11c) DCs,does not require ATG16L1 for its activity
same,IL-10 production among CD4+Foxp3- type 1 regulatory T cells,[1]; WT or Atg16L1ΔCD11c DCs,Neither WT-OMVs nor pure PSA have any effect
same,Response (IL-10 among CD4+Foxp3+ Tregs),CD4+Foxp3+ Tregs,respond to purified PSA
same,Treg suppressive activity,[2],does not require ATG16L1 to promote suppressive Treg activity
same,Accumulation of membrane-bound LC3-GFP (LC3-II) / LAP activation,[3],neither APSA-OMVs nor purified PSA are able to activate LAP
